# According to patent US20020128320A1, “Method of administering calcium citrate” (UniServices Ltd., priority 2001, published 2002):
# Entries after “also recorded” stand apart in the source; their conditions may differ. Where two headings read alike, the source gives them in different places.
# What was measured:
# [1] = Randomized placebo-controlled trial of calcium citrate: fasting serum lipids; assay type: in vivo, normal postmenopausal women
# Method: (§1) A randomized controlled trial of calcium supplementation in 223 normal postmenopausal women aged 55 years or older. Women receiving therapy for osteoporosis were ineligible, as were those with any other major ongoing disease, including serum creatine greater than 0.2 mmol/L, untreated hypo- or hyperthyroidism, liver disease, serum 25-hydroxyvitamin D less than 10 μg/L, malignancy or metabolic bone disease. None of the subjects had been regular users of hormone replacement therapy, anabolic steroids, glucocorticoids or bisphosphonates in the previous 1 year. Lumbar spine bone density (Lunar Expert, Madison, Wis.) was not below the age-appropriate normal range. In the present sub-study there was the further requirement that subjects were not receiving therapy for hyperlipidemia.
# 266 subjects were assessed for eligibility for the sub-study, and 223 entered the study, of which 111 women were randomized to calcium and 112 to placebo. 20 women in the calcium group discontinued study medication as did 26 in the placebo group. […] The study was approved by the local ethics committee, and each subject gave written, informed consent. There were not significant differences between groups.
# Treatments were allocated randomly using a minimization algorithm balancing for current thiazide use, age and the occurrence of fractures resulting from minimal trauma after the age of 40 years. Subjects received 1 gram of elemental calcium daily as the citrate (Citracal, Mission Pharmacal, San Antonio Tex.) or identical placebo. They were asked to take two tablets (each containing 200 mg elemental calcium) before breakfast and three tablets in the evening. Calcium intake and physical activity were assessed using validated questionnaires (Angus et al., 1989; Wilson et al., 1986). Compliance was assessed by tablet counts.
# Fasting total cholesterol, high-density lipoprotein cholesterol and triglycerides were measured in serum at baseline, 2 months, 6 months, and one year, using a Roche-Hitachi 747 autoanalyzer (Mannherim, Germany). The cholesterol assay used cholesterol oxidase, high-density lipoprotein measurement was by a direct non-precipitation method using PEG-modified enzymes (cholesterol oxidase), and triglycerides were assayed using a glycerol kinase/oxidase method after initial hydrolysis using lipoprotein lipase. Low-density lipoprotein was calculated using the Friedewald formula:
# LDL=TC−HDL−(0.45×triglyceride)
# Data were analyzed on an intention-to-treat basis, using a fixed effects mixed models approach to repeated measures using the MIXED procedure of SAS (SAS Institute, Cary, N.C.). Significant main and interaction effects were explained using the method of Tukey. In complimentary analyses, the change from baseline for each continuous normal dependant variable was compared between treatment and placebo arms using Student's t-test for independent groups. A 5% significance level was maintained throughout these analyses.
# [2] = Randomized placebo-controlled trial of calcium citrate: body weight; assay type: in vivo, normal postmenopausal women
# Method: as §1, with “In the present sub-study there was the further requirement that subjects were not receiving therapy for hyperlipidemia.” left out
# 266 subjects were assessed for eligibility for the sub-study, and 223 entered the study, of which 111 women were randomized to calcium and 112 to placebo. […]
# Treatments were allocated randomly using a minimization algorithm balancing for current thiazide use, age and the occurrence of fractures resulting from minimal trauma after the age of 40 years. […] Calcium intake and physical activity were assessed using validated questionnaires (Angus et al., 1989; Wilson et al., 1986). Compliance was assessed by tablet counts.
# Data were analyzed on an intention-to-treat basis, using a fixed effects mixed models approach to repeated measures using the MIXED procedure of SAS (SAS Institute, Cary, N.C.). […]
# [3] = 6 weeks; 56 subjects; cited from earlier work
# [4] = 193 subjects; cited from earlier work
# [5] = 13 men, cited from earlier work
# [6] = intention-to-treat analysis, 12 months, 1 g elemental calcium daily
compound,measurement,setting,value
O=C([O-])CC(O)(CC(=O)[O-])C(=O)[O-].O=C([O-])CC(O)(CC(=O)[O-])C(=O)[O-].[Ca+2].[Ca+2].[Ca+2] [calcium citrate],high-density lipoprotein/low-density lipoprotein ratio increase (summary statement),[1]; daily dose about 1 gram elemental calcium,~20%
same,predicted reduction of cardiovascular event rates,[1]; extrapolated from lipid effects by comparison with statin trial data,20-30%
same,high-density lipoprotein/low-density lipoprotein ratio increase,[1]; [6],17.7%
same,total cholesterol fall (non-significant),[1]; [6],3.7%
same,high-density lipoprotein increase above baseline,"[1]; intention-to-treat analysis, 12 months, 1 g elemental calcium daily, oral",7.3%
same,low-density lipoprotein decline,"[1]; intention-to-treat analysis, 12 months, 1 g elemental calcium daily, LDL calculated by Friedewald formula",7.8%
same,ratio of total cholesterol/high-density lipoprotein decline,"[1]; intention-to-treat analysis, one year, 1 g elemental calcium daily",9.3%
same,treatment effect on triglycerides,"[1]; intention-to-treat analysis, versus placebo (P=0.48)",no significant treatment effect
same,change in high-density lipoprotein cholesterol versus placebo,"[1]; protocol analysis excluding statin/fibrate users, FIG. 1A, P=0.05",increase in high-density lipoprotein; also recorded: significant treatment effects
same,change in low-density lipoprotein cholesterol versus placebo,"[1]; protocol analysis excluding statin/fibrate users, FIG. 1B, P=0.04",declined; also recorded: significant treatment effects
same,change in total cholesterol,"[1]; protocol analysis excluding statin/fibrate users, FIG. 2A",did not change significantly
same,treatment effect on triglycerides,"[1]; protocol analysis excluding statin/fibrate users, FIG. 3",no significant treatment effect
same,total cholesterol/high-density lipoprotein ratio decrease,[1]; protocol analysis excluding subjects who commenced a statin or fibrate,9.6%
same,high-density lipoprotein/low-density lipoprotein ratio increase,"[1]; protocol analysis excluding subjects who commenced a statin or fibrate, FIG. 2B",17%
same,body weight decrease (mean ±SE),"[2]; intention-to-treat analysis, 1 g elemental calcium daily",289 ± 193 g
same,between-groups effect on body weight,[2]; versus placebo (P=0.54),no between-groups effect on body weight
O=C([O-])[O-].[Ca+2] [calcium carbonate],change in total cholesterol,[3],statistically insignificant decrease
same,"changes in total cholesterol, high-density lipoprotein level, and blood pressure",[4],statistically insignificant changes
calcium citrate malate,increase in saturated fat excretion,[5]; food and tablets,7%
same,low-density lipoprotein levels decrease,[5]; food and tablets,11%
same,reduction in plasma cholesterol,[5]; food and tablets,6%
same,high-density lipoprotein levels change,[5]; increased in some subjects and decreased in others,insignificant
